Assay results: ChEMBL document CHEMBL3885881, “DrugMatrix”

Species on record: Rattus norvegicus
Test: DrugMatrix - Regimen: Daily Repeat
Type: toxicity, organism-based, Sprague-Dawley
Parameters: regimen Daily Repeat, gender Male, age 6-8 weeks
Conditions: in vivo, po, route oral GAVAGE, vehicle 100 % WATER; for ABSOLUTE BASOPHIL / ABSOLUTE EOSINOPHIL / ABSOLUTE LYMPHOCYTE / ABSOLUTE MONOCYTE / ABSOLUTE SEGMENTED NEUTROPHIL / BASOPHIL / EOSINOPHIL / ERYTHROCYTE COUNT / HEMATOCRIT / HEMOGLOBIN / LEUKOCYTE COUNT / LYMPHOCYTE / MEAN CORPUSCULAR HEMOGLOBIN / MEAN CORPUSCULAR HEMOGLOBIN CONCENTRATION / MEAN CORPUSCULAR VOLUME / MONOCYTE / NEUTROPHIL / NUCLEATED RED BLOOD CELLS / PLATELET COUNT: tissue Blood; for ALANINE AMINOTRANSFERASE / ALBUMIN / ALKALINE PHOSPHATASE / ASPARTATE AMINOTRANSFERASE / BLOOD UREA NITROGEN / CARBON DIOXIDE / CHLORIDE / CHOLESTEROL / CREATINE PHOSPHOKINASE / CREATININE / GLUCOSE / LACTATE DEHYDROGENASE / LIPASE / PHOSPHORUS / POTASSIUM / SODIUM / TOTAL BILIRUBIN / TOTAL PROTEIN / URIC ACID: tissue Plasma
[1] = 0 mg/kg, 72 h, dose level Control, time 3 day
[2] = 0 mg/kg, 120 h, dose level Control, time 5 day
[3] = 27 mg/kg, 72 h, dose level Low, time 3 day

CNNCc1ccc(C(=O)NC(C)C)cc1 [PROCARBAZINE]
ABSOLUTE BASOPHIL [1]: 0 CELLS/uL
ABSOLUTE EOSINOPHIL [1]: 0 CELLS/uL
ABSOLUTE LYMPHOCYTE [1]: 7802.17 CELLS/uL
ABSOLUTE MONOCYTE [1]: 13.5 CELLS/uL
ABSOLUTE SEGMENTED NEUTROPHIL [1]: 617.67 CELLS/uL
BASOPHIL [1]: 0%
EOSINOPHIL [1]: 0%
ERYTHROCYTE COUNT [1]: 5.35 x10E6/uL
HEMATOCRIT [1]: 33.02%
HEMOGLOBIN [1]: 12.88 G/DL
LEUKOCYTE COUNT [1]: 8.43 x10E3/uL
LYMPHOCYTE [1]: 92.67%
MEAN CORPUSCULAR HEMOGLOBIN [1]: 24.12 pg
MEAN CORPUSCULAR HEMOGLOBIN CONCENTRATION [1]: 39.03 G/DL
MEAN CORPUSCULAR VOLUME [1]: 61.8 fL
MONOCYTE [1]: 0.17%
NEUTROPHIL [1]: 7.17%
NUCLEATED RED BLOOD CELLS [1]: 0 /100WBC
PLATELET COUNT [1]: 1124.83 x10E3/uL
ALANINE AMINOTRANSFERASE [1]: 54.17 u/L
ALBUMIN [1]: 4.07 G/DL
ALKALINE PHOSPHATASE [1]: 383.83 u/L
ASPARTATE AMINOTRANSFERASE [1]: 82.17 u/L
BLOOD UREA NITROGEN [1]: 13.67 mg/dL
CARBON DIOXIDE [1]: 31 mmol/L
CHLORIDE [1]: 100.83 MEQ/L
CHOLESTEROL [1]: 65.17 mg/dL
CREATINE PHOSPHOKINASE [1]: 228.33 u/L
CREATININE [1]: 0.12 mg/dL
GLUCOSE [1]: 148 mg/dL
LACTATE DEHYDROGENASE [1]: 97.83 u/L
LIPASE [1]: 9.17 u/L
PHOSPHORUS [1]: 9.75 mg/dL
POTASSIUM [1]: 5.85 MEQ/L
SODIUM [1]: 147.02 MEQ/L
TOTAL BILIRUBIN [1]: 0.18 mg/dL
TOTAL PROTEIN [1]: 6.1 G/DL
URIC ACID [1]: 0.5 mg/dL
ABSOLUTE BASOPHIL [2]: 0 CELLS/uL
ABSOLUTE EOSINOPHIL [2]: 0 CELLS/uL
ABSOLUTE LYMPHOCYTE [2]: 10538 CELLS/uL
ABSOLUTE MONOCYTE [2]: 15.83 CELLS/uL
ABSOLUTE SEGMENTED NEUTROPHIL [2]: 762.83 CELLS/uL
BASOPHIL [2]: 0%
EOSINOPHIL [2]: 0%
ERYTHROCYTE COUNT [2]: 5.49 x10E6/uL
HEMATOCRIT [2]: 34.63%
HEMOGLOBIN [2]: 13.72 G/DL
LEUKOCYTE COUNT [2]: 11.32 x10E3/uL
LYMPHOCYTE [2]: 92.67%
MEAN CORPUSCULAR HEMOGLOBIN [2]: 24.97 pg
MEAN CORPUSCULAR HEMOGLOBIN CONCENTRATION [2]: 39.57 G/DL
MEAN CORPUSCULAR VOLUME [2]: 63.05 fL
MONOCYTE [2]: 0.17%
NEUTROPHIL [2]: 7.17%
NUCLEATED RED BLOOD CELLS [2]: 0.17 /100WBC
PLATELET COUNT [2]: 802 x10E3/uL
ALANINE AMINOTRANSFERASE [2]: 50.5 u/L
ALBUMIN [2]: 4.07 G/DL
ALKALINE PHOSPHATASE [2]: 336.83 u/L
ASPARTATE AMINOTRANSFERASE [2]: 81 u/L
BLOOD UREA NITROGEN [2]: 14.17 mg/dL
CARBON DIOXIDE [2]: 32 mmol/L
CHLORIDE [2]: 98.33 MEQ/L
CHOLESTEROL [2]: 69.17 mg/dL
CREATINE PHOSPHOKINASE [2]: 253.33 u/L
CREATININE [2]: 0.13 mg/dL
GLUCOSE [2]: 153.67 mg/dL
LACTATE DEHYDROGENASE [2]: 157 u/L
LIPASE [2]: 9 u/L
PHOSPHORUS [2]: 10.78 mg/dL
POTASSIUM [2]: 6.11 MEQ/L
SODIUM [2]: 144.57 MEQ/L
TOTAL BILIRUBIN [2]: 0.15 mg/dL
TOTAL PROTEIN [2]: 6.05 G/DL
URIC ACID [2]: 0.73 mg/dL
ABSOLUTE BASOPHIL [3]: 0 CELLS/uL
ABSOLUTE EOSINOPHIL [3]: 0 CELLS/uL
ABSOLUTE LYMPHOCYTE [3]: 5898 CELLS/uL
ABSOLUTE MONOCYTE [3]: 47.67 CELLS/uL
ABSOLUTE SEGMENTED NEUTROPHIL [3]: 121 CELLS/uL
BASOPHIL [3]: 0%
EOSINOPHIL [3]: 0%
ERYTHROCYTE COUNT [3]: 5.61 x10E6/uL
HEMATOCRIT [3]: 35.4%
HEMOGLOBIN [3]: 13.53 G/DL
LEUKOCYTE COUNT [3]: 6.07 x10E3/uL
LYMPHOCYTE [3]: 97%
MEAN CORPUSCULAR HEMOGLOBIN [3]: 24.13 pg
MEAN CORPUSCULAR HEMOGLOBIN CONCENTRATION [3]: 38.2 G/DL
MEAN CORPUSCULAR VOLUME [3]: 63.1 fL
MONOCYTE [3]: 1%
NEUTROPHIL [3]: 2%
NUCLEATED RED BLOOD CELLS [3]: 0 /100WBC
PLATELET COUNT [3]: 1005 x10E3/uL
ALANINE AMINOTRANSFERASE [3]: 73.33 u/L
ALBUMIN [3]: 4.33 G/DL
ALKALINE PHOSPHATASE [3]: 429.33 u/L
ASPARTATE AMINOTRANSFERASE [3]: 103.33 u/L
BLOOD UREA NITROGEN [3]: 13.67 mg/dL
CARBON DIOXIDE [3]: 31.67 mmol/L
CHLORIDE [3]: 97.5 MEQ/L
CHOLESTEROL [3]: 76.33 mg/dL
CREATINE PHOSPHOKINASE [3]: 504 u/L
CREATININE [3]: 0.1 mg/dL
GLUCOSE [3]: 139.67 mg/dL
LACTATE DEHYDROGENASE [3]: 137.67 u/L
LIPASE [3]: 11.67 u/L
PHOSPHORUS [3]: 9.73 mg/dL
POTASSIUM [3]: 5.46 MEQ/L
SODIUM [3]: 144.3 MEQ/L
TOTAL BILIRUBIN [3]: 0.13 mg/dL
TOTAL PROTEIN [3]: 6.27 G/DL
URIC ACID [3]: 0.57 mg/dL
